Measurements taken from ChEMBL document CHEMBL1201862, “PubChem BioAssay data set” (2004).
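Each compound was tested at five concentrations against cells in 96-well plates for 48 hours. GI50 marks 50% less growth.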 The source made the active and inactive calls. Cut-off read from the data, not from the text of the source: active = GI50 up to about 1.1 µM and inactive = higher.

Tests used:
Test in all cases: NCI-60 cell line screen, 48 h
MDA-MB-435 = test system: MDA-MB-435
SNB-75 = test system: SNB-75
NCI-H460 = test system: NCI-H460
SK-OV-3 = test system: SK-OV-3
LOX IMVI = test system: LOX IMVI
U-251 = test system: U-251
SK-MEL-5 = test system: SK-MEL-5
SW-620 = test system: SW-620
PC-3 = test system: PC-3
K562 = test system: K562
Hs-578T = test system: Hs-578T
DU-145 = test system: DU-145
OVCAR-4 = test system: OVCAR-4
UACC-257 = test system: UACC-257
NCI/ADR-RES = test system: NCI/ADR-RES
COLO 205 = test system: COLO 205
SN12C = test system: SN12C
SF-539 = test system: SF-539
M14 = test system: M14
TK-10 = test system: TK-10

Row | Structure (SMILES) | GI50 (MDA-MB-435) | GI50 (SNB-75) | GI50 (NCI-H460) | GI50 (SK-OV-3) | GI50 (LOX IMVI) | GI50 (U-251) | GI50 (SK-MEL-5) | GI50 (SW-620) | GI50 (PC-3) | GI50 (K562) | GI50 (Hs-578T) | GI50 (DU-145) | GI50 (OVCAR-4) | GI50 (UACC-257) | GI50 (NCI/ADR-RES) | GI50 (COLO 205) | GI50 (SN12C) | GI50 (SF-539) | GI50 (M14) | GI50 (TK-10)
1 | N#Cc1nc(COCCOCc2ccccc2)oc1N | > 100 µM (inactive) | > 100 µM (inactive) | > 100 µM (inactive) | > 100 µM (inactive) | > 100 µM (inactive) | > 100 µM (inactive) | > 100 µM (inactive) | > 100 µM (inactive) | > 100 µM (inactive) | > 100 µM (inactive) | > 100 µM (inactive) | > 100 µM (inactive) | > 100 µM (inactive) | > 100 µM (inactive) | > 100 µM (inactive) | > 100 µM (inactive) | > 100 µM (inactive) | > 100 µM (inactive) | > 100 µM (inactive) | > 100 µM (inactive)
2 | Cc1nc(-n2nc(-c3ccccc3)cc2-c2ccccc2)sc1C(=O)/C=C/c1ccc([N+](=O)[O-])cc1 | 16 µM (inactive) | 2.69 µM (inactive) | 25.2 µM (inactive) | > 65.8 µM (inactive) | 15.7 µM (inactive) | 16 µM (inactive) | 16.6 µM (inactive) | 21.4 µM (inactive) | 17.2 µM (inactive) | 14.2 µM (inactive) | 27.7 µM (inactive) | 21.8 µM (inactive) | 34.1 µM (inactive) | 34.5 µM (inactive) | 17.2 µM (inactive) | 24.4 µM (inactive) | 29.1 µM (inactive) | 11.2 µM (inactive) | 27.6 µM (inactive) | 41.5 µM (inactive)
3 | c1ccc2c(c1)nc1n2CNC1 | > 100 µM (inactive) | > 100 µM (inactive) | 54.6 µM (inactive) | > 100 µM (inactive) | > 100 µM (inactive) | > 100 µM (inactive) | > 100 µM (inactive) | > 100 µM (inactive) | > 100 µM (inactive) | > 100 µM (inactive) | > 100 µM (inactive) | > 100 µM (inactive) | > 100 µM (inactive) | > 100 µM (inactive) | > 100 µM (inactive) | > 100 µM (inactive) | > 100 µM (inactive) | > 100 µM (inactive) | > 100 µM (inactive) | > 100 µM (inactive)
4 | Cn1c(-c2ccccc2)c2cc3nc4ccccc4nc3cc2c1-c1ccccc1 | 5.79 µM (inactive) | 26.5 µM (inactive) | 4.19 µM (inactive) | 21.6 µM (inactive) | 14 µM (inactive) | 19.8 µM (inactive) | 1.67 µM (inactive) | 15.8 µM (inactive) | 14.7 µM (inactive) | 17.3 µM (inactive) | 10.6 µM (inactive) | 30.3 µM (inactive) | 30 µM (inactive) | 56.2 µM (inactive) | 23.2 µM (inactive) | 2.26 µM (inactive) | 13.3 µM (inactive) | 17.4 µM (inactive) | 6.21 µM (inactive) | 41 µM (inactive)
5 | Cc1ccc(NC(=O)c2cc(S(=O)(=O)Nc3nc4cccnc4[nH]3)c(SSc3cc(Cl)c(C(=O)Nc4ccc(C)cc4)cc3S(=O)(=O)Nc3nc4cccnc4[nH]3)cc2Cl)cc1 | > 100 µM (inactive) | > 100 µM (inactive) | > 100 µM (inactive) | > 100 µM (inactive) | > 100 µM (inactive) | > 100 µM (inactive) | > 100 µM (inactive) | > 100 µM (inactive) | > 100 µM (inactive) | > 100 µM (inactive) | > 100 µM (inactive) | > 100 µM (inactive) | > 100 µM (inactive) | > 100 µM (inactive) | > 100 µM (inactive) | > 100 µM (inactive) | > 100 µM (inactive) | > 100 µM (inactive) | > 100 µM (inactive) | > 100 µM (inactive)
6 | Nc1nc2c(c(-c3ccccc3Cl)n1)COC/C2=C\c1ccccc1Cl | 10.3 µM (inactive) | 15.9 µM (inactive) | 18.6 µM (inactive) | 16.1 µM (inactive) | 18.7 µM (inactive) | 16.8 µM (inactive) | 16.4 µM (inactive) | 16.6 µM (inactive) | 14.3 µM (inactive) | 12.2 µM (inactive) | 21.8 µM (inactive) | 16.9 µM (inactive) | 19.7 µM (inactive) | 18.7 µM (inactive) | 16.8 µM (inactive) | 16.3 µM (inactive) | 16.6 µM (inactive) | 18.2 µM (inactive) | 15.7 µM (inactive) | 17.6 µM (inactive)
7 | NC(Cc1ccccc1)c1nn[nH]n1 (stereo not given) | > 100 µM (inactive) | > 100 µM (inactive) | > 100 µM (inactive) | > 100 µM (inactive) | > 100 µM (inactive) | > 100 µM (inactive) | > 100 µM (inactive) | > 100 µM (inactive) | > 100 µM (inactive) | 0.0476 µM (active) | > 100 µM (inactive) | > 100 µM (inactive) | > 100 µM (inactive) | > 100 µM (inactive) | > 100 µM (inactive) | > 100 µM (inactive) | > 100 µM (inactive) | > 100 µM (inactive) | > 100 µM (inactive) | > 100 µM (inactive)
